The text below walks through data of patent US8129532B2, “Amino(oligo)thiophene dyes, preparation thereof, and optical methods of use” (The University of Connecticut, priority 2007, dated 2012).

Series [1] is described as follows: One-photon absorption and emission spectra in multilamellar lipid vesicles, water and ethanol. In kind it is physicochemical. The settings on record: for 1PF Abs. Max / 1PF Em. Max: one photon, soybean multi-lamellar lipid vesicles. The text has this:
[…] The column indicating relative signal change for one-photon fluorescence also lists the excitation light source used and the lower bounds of the long-pass emission detected.
Absorption and emission spectra were obtained for a series of dyes with different acceptors: pyridinium (PY-1261), quinolinium (PY-212), and acridinium (PY-2240).

A short description of series [2]: One-photon fluorescence relative signal change per 100 mV. The settings on record: excitation / long-pass emission (nm) given. The text has this:
The left-most data columns of Table 1 are the absorption and emission maxima for one photon fluorescence in soybean multi-lamellar lipid vesicles used to mimic the membrane environment. The column indicating relative signal change for one-photon fluorescence also lists the excitation light source used and the lower bounds of the long-pass emission detected.

In series [3] the test system is NIE-115 mouse neuroblastoma. The series can be described thus: SHG and 2PF voltage sensitivity, 50 mV step, slow switching protocol on patch-clamped neuroblastoma cell. In kind it is cell-based. The settings on record: comparator named in the sentence (PY-1266; PY-1268). The text has this:
(§1) For full details of our non-linear imaging microscope, we refer the reader to previously published descriptions. A. C. Millard, P. J. Campagnola, W. Mohler, A. Lewis, and L. M. Loew, “Second Harmonic Imaging Microscopy,” Meth. Enzymol. 361, 47-69 (2003); Millard, A. C., L. Jin, and L. M. Loew, “Second Harmonic Generation Imaging Microscopy with a High Power Ultrafast Fiber Laser,”Commercial and Biomedical Applications of Ultrafast Lasers. 5714-5716, 92-98 (2005); A. C. Millard, L. Jin, M.-D. Wei, J. P. Wuskell, A. Lewis, and L. M. Loew, “Sensitivity of Second Harmonic Generation from Styryl Dyes to Transmembrane Potential,” Biophys. J. 86, 1169-1176 (2004). Our current microscope combines a Fluoview (Olympus) scan-head and an Axiovert (Zeiss) inverted microscope constructed for multiple imaging methodologies including wide-field, one-photon excitation fluorescence imaging, as well as SHG and 2PF imaging. Our laser sources include a Mira (Coherent) Ti:sapphire laser and a Femtopower (Fianium) fiber laser operating at 1064 nm. […] Fluorescence is imaged (for linear imaging) or collected (for non-linear imaging) back through the excitation objective, while SHG is collected in the forward, transmitted light direction by a condenser, either 0.8 NA or 0.55 NA (Zeiss). […]
(In general: In patch-clamp work, channel activity is measured electrically.)

For series [4], the system named is NIE-115 mouse neuroblastoma. The series can be described thus: Time-dependence (kinetics) of SHG and 2PF signal change after voltage-clamp step. In kind it is cell-based. The settings on record: time resolution 5 ms. The text has this: For full details of our non-linear imaging microscope, we refer the reader to previously published descriptions. A. C. Millard, P. J. Campagnola, W. Mohler, A. Lewis, and L. M. Loew, “Second Harmonic Imaging Microscopy,” Meth. Enzymol. 361, 47-69 (2003); Millard, A. C., L. Jin, and L. M. Loew, “Second Harmonic Generation Imaging Microscopy with a High Power Ultrafast Fiber Laser,”Commercial and Biomedical Applications of Ultrafast Lasers. 5714-5716, 92-98 (2005); A. C. Millard, L. Jin, M.-D. Wei, J. P. Wuskell, A. Lewis, and L. M. Loew, “Sensitivity of Second Harmonic Generation from Styryl Dyes to Transmembrane Potential,” Biophys. J. 86, 1169-1176 (2004). Our current microscope combines a Fluoview (Olympus) scan-head and an Axiovert (Zeiss) inverted microscope constructed for multiple imaging methodologies including wide-field, one-photon excitation fluorescence imaging, as well as SHG and 2PF imaging. Our laser sources include a Mira (Coherent) Ti:sapphire laser and a Femtopower (Fianium) fiber laser operating at 1064 nm. Millard, A. C., L. Jin, and L. M. Loew, “Second Harmonic Generation Imaging Microscopy with a High Power Ultrafast Fiber Laser,”Commercial and Biomedical Applications of Ultrafast Lasers. 5714-5716, 92-98 (2005). For excitation, we routinely use an IR-Achroplan (Zeiss) 40×, 0.8 NA water-immersion objective though for shorter wavelengths we also use an A-Plan (Zeiss) 40×, 0.65 NA air objective. Fluorescence is imaged (for linear imaging) or collected (for non-linear imaging) back through the excitation objective, while SHG is collected in the forward, transmitted light direction by a condenser, either 0.8 NA or 0.55 NA (Zeiss). For optimal collection, the numerical aperture of the condenser should be at least 1/√2 of the numerical aperture of the excitation objective (L. Moreaux, O. Sandre, S. Charpak, M. Blanchard-Desce, and J. Mertz, “Coherent Scattering in Multi-Harmonic Light Microscopy,” Biophys. J. 80, 1568-1574 (2001); L. Moreaux, O. Sandre, and J. Mertz. “Membrane Imaging by Second Harmonic Generation Microscopy,” J. Opt. Soc. Am. B. 17, 1685-1694 (2000)), though in practice a condenser of slightly lower numerical aperture will often suffice. Since the wavelength of second harmonic light is precisely half that of the excitation light, the choice of filter for SHG imaging is greatly simplified and the primary concern is the blocking of the excitation light that is also transmitted through the sample as well as fluorescence that is emitted forwards.
NIE-115 mouse neuroblastoma were cultured in DMEM with 10% fetal bovine serum and 1% antibiotic-antimycotic (Invitrogen, Carlsbad, Calif.) in a 60 mm plastic dish (353002, Becton Dickinson, Franklin Lakes, N.J.). The culture was maintained at 37° C. with 5% CO2 for a period of 48 hours prior to experimentation.
For experimentation the growth medium was replaced with 3 mL of Earle's Balanced Salt Solution (EBSS, Sigma, St. Louis, Mo.) with 20 mM HEPES (Merck Biosciences AG, Laufelfingen, Switzerland). The internal buffer, injected into the patch pipette, was a potassium aspartate (140 mM, Sigma, St. Louis, Mo.), sodium chloride (5 mM, Sigma, St. Louis, Mo.) and HEPES (10 mM) solution at a pH of 7.35. The pH was adjusted with potassium hydroxide and hydrochloric acid.
For characterizing the voltage-sensitivity of SHG and 2PF, we used a slow (˜0.1 Hz) switching protocol as previously described (A. C. Millard, P. J. Campagnola, W. Mohler, A. Lewis, and L. M. Loew, “Second Harmonic Imaging Microscopy,” Meth. Enzymol. 361, 47-69 (2003); Millard, A. C., L. Jin, and L. M. Loew, “Second Harmonic Generation Imaging Microscopy with a High Power Ultrafast Fiber Laser,” Commercial and Biomedical Applications of Ultrafast Lasers. 5714-5716, 92-98 (2005); A. C. Millard, L. Jin, M.-D. Wei, J. P. Wuskell, A. Lewis, and L. M. Loew, “Sensitivity of Second Harmonic Generation from Styryl Dyes to Transmembrane Potential,” Biophys. J. 86, 1169-1176 (2004)) with a 50 mV step. […]

The subject of a further series is membrane potential. The settings on record: cited from earlier work.
The next series deals with neuroblastoma cells. Kind of series: SHG and 2PF imaging of stained neuroblastoma cells, 1064 nm fiber laser. In kind it is cell-based, mouse. The settings on record: 1064 nm excitation.
Excerpt: as §1

The test system of another series is dye-stained cells. Kind of series: Confocal fluorescence intensity and bleaching of dye-stained cells. In kind it is cell-based. To be noted: compared with PY-1261.
The mark [5] stands for this setting: compared with unfluorinated PY-1261.

Molecules are shown by their SMILES. “And” between values parts separate entries of the source, which are not always exact repeats. Equal entries are not always repeated.

For the compound `CC[N+](CC)(CC)CCC[n+]1ccc(/C=C/c2ccc(-c3ccc(N(C)C)s3)s2)cc1` [PY-1282], in series [1], the “1PF Abs. Max” value turned out to be 530 nm and the “1PF Em. Max” value came out at 676 nm. Moreover, in series [2], the “1PF Change (ΔF/F-100 mv)” value is listed as 8.0E−002; 640/>715 ΔF/F-100 mv. In series [3], the “SHG signal sensitivity relative to another dye” value is recorded as “three-fold increase”. Besides, the “SHG Kinetics (exponential time constant)” value in series [4] is given as 16 ± 1 ms.

Turning to `CCN(CC)c1ccc(/C=C/C=C/C=C/c2cc[n+](CCC[N+](CC)(CC)CC)cc2)cc1.[Br-].[Br-]` [FM4-64], the “SHG sensitivity to membrane potential” value with membrane potential (literature) was < 10 % per 100 mV and 7.5-10 % per 100 mV.

Consider `CCCCN(CCCC)c1ccc(/C=C/c2cc[n+](CCC[N+](CC)(CC)CC)cc2)s1` [PY-1284], for which, in series [1], the “1PF Abs. Max” value is reported as 536 nm and the “1PF Em. Max” value came out at 588 nm. For the same compound, the “1PF Change (ΔF/F-100 mv)” value in series [2] is 1.5E−002; 555/>610 ΔF/F-100 mv. Also, in the series with neuroblastoma cells, the “2PF and SHG image signal strength” value was “weak”.

Regarding `CCN(CC)c1ccc(-c2ccc(/C=C(\F)c3cc[n+](CCC[N+](CC)(CC)CC)cc3)s2)s1` [PY-3008], in series [1] (setting [5]), the “absorbance extinction coefficient of dye-stained lipid vesicle suspensions” value was “increases” and the “effect of fluorination on spectra” value is listed as “shifts the spectra to the red”. For the same compound, in series [1], the “1PF Abs. Max” value was found to be 565 nm and the “1PF Em. Max” value amounted to 706 nm. In series [2], the “1PF Change (ΔF/F-100 mv)” value was 1.0E−001; 650/>715 ΔF/F-100 mv. In the series on dye-stained cells, the “half time for bleaching of dye-stained cells” value is “increases the half time for bleaching”. For the same compound, in the series with dye-stained cells (confocal microscope), the “intensity of fluorescence of stained cells” value is given as “increases”.

Take `CCCCN(CCCC)c1ccc2cc(/C=C/c3cc[n+](CCCS(=O)(=O)[O-])cc3)ccc2c1` [di-4-ANEPPS]: the “SHG Kinetics (exponential time constant)” value in the series on membrane potential (literature (Millard 2005)) is given as 70.6 ms.
